Laboratory results: ChEMBL document CHEMBL5696441 (Nat Chem Biol, 2011)

Key:
[1] = target: Phosphatidylinositol 4,5-bisphosphate 3-kinase catalytic subunit gamma isoform (Homo sapiens) (UniProt P48736); test: Inhibition of PIK3CG (unknown origin) assessed as remaining activity at 1 uM by Kinome scan method relative to control
[2] = target: MAP kinase-activated protein kinase 2 (Homo sapiens) (UniProt P49137); test: Inhibition of MAPKAPK2 (unknown origin) assessed as remaining activity at 1 uM by Kinome scan method relative to control
MAP kinase-activated protein kinase 2 (Homo sapiens), sequence (P49137 whole entry, looked up): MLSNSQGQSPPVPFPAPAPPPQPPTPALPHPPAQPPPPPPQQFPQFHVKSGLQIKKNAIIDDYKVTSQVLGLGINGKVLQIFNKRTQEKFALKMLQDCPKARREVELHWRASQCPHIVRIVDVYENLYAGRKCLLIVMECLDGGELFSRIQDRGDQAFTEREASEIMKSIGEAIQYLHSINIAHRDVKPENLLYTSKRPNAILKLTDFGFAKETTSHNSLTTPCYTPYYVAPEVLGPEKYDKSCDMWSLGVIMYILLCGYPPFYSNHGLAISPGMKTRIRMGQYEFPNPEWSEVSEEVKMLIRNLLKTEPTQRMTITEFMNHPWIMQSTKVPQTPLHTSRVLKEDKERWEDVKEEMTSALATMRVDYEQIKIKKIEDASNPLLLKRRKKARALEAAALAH

[3] = target: Cyclin-dependent kinase 3 (Homo sapiens) (UniProt Q00526); test: Inhibition of CDK3 (unknown origin) assessed as remaining activity at 1 uM by Kinome scan method relative to control
Cyclin-dependent kinase 3 (Homo sapiens), sequence (Q00526 whole entry, looked up): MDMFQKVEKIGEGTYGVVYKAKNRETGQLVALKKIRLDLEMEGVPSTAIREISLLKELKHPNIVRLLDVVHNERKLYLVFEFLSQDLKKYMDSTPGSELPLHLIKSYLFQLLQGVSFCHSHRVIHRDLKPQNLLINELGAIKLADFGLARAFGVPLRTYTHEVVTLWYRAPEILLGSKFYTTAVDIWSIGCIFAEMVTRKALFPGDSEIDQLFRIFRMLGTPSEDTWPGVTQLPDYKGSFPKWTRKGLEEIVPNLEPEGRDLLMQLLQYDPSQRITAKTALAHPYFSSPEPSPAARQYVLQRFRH

[4] = target: T1, Serine/threonine-protein kinase D1 (Homo sapiens) (UniProt Q15139); test: Inhibition of PRKD1 (unknown origin) assessed as remaining activity at 1 uM by Kinome scan method relative to control
T1 sequence (whole entry): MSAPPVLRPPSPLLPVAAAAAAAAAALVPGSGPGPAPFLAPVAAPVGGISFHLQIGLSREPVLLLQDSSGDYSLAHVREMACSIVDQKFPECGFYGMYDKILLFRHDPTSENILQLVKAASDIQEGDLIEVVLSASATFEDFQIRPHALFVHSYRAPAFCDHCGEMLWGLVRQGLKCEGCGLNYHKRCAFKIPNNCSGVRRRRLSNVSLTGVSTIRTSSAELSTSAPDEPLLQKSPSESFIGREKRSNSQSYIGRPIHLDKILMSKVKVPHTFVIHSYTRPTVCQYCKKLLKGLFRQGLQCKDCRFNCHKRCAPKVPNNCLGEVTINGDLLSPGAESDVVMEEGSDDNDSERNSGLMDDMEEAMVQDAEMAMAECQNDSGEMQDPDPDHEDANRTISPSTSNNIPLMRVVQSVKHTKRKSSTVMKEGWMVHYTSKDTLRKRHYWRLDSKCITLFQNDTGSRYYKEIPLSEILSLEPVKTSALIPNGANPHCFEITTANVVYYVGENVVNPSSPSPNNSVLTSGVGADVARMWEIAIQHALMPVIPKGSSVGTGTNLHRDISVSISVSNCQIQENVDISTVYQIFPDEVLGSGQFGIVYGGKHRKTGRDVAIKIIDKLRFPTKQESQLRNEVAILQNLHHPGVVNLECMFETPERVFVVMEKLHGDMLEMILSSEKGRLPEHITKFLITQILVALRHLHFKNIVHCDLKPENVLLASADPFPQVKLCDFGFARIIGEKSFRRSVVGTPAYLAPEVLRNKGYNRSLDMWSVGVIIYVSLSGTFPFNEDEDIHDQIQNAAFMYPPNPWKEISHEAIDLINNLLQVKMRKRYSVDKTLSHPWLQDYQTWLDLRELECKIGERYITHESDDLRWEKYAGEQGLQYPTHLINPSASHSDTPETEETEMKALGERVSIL

[5] = target: T2, Serine/threonine-protein kinase PLK4 (Homo sapiens) (UniProt O00444); test: Inhibition of PLK4 (unknown origin) assessed as remaining activity at 1 uM by Kinome scan method relative to control
T2 sequence (whole entry): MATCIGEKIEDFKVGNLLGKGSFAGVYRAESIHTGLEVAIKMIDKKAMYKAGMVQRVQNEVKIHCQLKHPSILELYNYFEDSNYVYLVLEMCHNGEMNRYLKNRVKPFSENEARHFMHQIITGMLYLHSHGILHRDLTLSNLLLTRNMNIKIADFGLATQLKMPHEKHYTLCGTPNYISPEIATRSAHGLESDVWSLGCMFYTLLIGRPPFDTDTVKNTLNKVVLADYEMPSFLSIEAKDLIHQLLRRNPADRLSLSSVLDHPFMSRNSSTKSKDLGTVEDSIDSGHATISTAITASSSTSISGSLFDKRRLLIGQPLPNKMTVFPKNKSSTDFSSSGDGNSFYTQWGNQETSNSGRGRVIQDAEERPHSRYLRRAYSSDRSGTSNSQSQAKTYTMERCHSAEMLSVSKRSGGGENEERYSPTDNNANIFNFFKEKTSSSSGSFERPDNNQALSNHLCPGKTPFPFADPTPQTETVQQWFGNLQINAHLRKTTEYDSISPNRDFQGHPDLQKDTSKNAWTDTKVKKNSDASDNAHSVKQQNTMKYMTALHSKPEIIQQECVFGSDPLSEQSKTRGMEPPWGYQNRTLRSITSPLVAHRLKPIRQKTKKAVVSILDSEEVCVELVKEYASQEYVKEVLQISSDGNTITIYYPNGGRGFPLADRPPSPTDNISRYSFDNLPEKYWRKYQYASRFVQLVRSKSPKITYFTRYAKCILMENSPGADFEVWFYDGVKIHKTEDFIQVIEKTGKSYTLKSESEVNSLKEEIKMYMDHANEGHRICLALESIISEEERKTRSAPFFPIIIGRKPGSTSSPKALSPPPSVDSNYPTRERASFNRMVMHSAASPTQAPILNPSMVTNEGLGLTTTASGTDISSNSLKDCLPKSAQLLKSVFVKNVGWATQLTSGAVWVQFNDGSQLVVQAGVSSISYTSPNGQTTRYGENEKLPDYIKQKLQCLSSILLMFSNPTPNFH

[6] = target: RAF proto-oncogene serine/threonine-protein kinase (Homo sapiens) (UniProt P04049); test: Inhibition of RAF1 (unknown origin) assessed as remaining activity at 1 uM by Kinome scan method relative to control
RAF proto-oncogene serine/threonine-protein kinase (Homo sapiens), sequence (P04049 whole entry): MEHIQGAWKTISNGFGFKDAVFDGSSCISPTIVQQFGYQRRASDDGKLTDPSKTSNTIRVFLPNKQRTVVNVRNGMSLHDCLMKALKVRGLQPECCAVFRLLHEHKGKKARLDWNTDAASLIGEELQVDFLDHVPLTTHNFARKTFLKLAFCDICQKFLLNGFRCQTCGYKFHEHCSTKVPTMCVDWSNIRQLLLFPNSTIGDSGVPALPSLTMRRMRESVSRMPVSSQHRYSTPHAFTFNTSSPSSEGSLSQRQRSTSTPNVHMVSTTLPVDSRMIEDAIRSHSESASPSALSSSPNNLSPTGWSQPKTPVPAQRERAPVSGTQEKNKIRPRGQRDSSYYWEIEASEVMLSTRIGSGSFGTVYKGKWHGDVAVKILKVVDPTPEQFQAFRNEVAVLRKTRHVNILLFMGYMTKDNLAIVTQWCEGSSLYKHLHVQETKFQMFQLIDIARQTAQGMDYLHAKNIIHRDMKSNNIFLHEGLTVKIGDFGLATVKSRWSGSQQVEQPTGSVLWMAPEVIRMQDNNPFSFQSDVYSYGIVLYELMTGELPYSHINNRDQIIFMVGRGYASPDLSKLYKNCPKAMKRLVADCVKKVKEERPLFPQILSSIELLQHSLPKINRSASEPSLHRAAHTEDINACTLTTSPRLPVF

[7] = target: T3, Serine/threonine-protein kinase 17A (Homo sapiens) (UniProt Q9UEE5); test: Inhibition of DRAK1 (unknown origin) assessed as remaining activity at 1 uM by Kinome scan method relative to control
T3 sequence (whole entry): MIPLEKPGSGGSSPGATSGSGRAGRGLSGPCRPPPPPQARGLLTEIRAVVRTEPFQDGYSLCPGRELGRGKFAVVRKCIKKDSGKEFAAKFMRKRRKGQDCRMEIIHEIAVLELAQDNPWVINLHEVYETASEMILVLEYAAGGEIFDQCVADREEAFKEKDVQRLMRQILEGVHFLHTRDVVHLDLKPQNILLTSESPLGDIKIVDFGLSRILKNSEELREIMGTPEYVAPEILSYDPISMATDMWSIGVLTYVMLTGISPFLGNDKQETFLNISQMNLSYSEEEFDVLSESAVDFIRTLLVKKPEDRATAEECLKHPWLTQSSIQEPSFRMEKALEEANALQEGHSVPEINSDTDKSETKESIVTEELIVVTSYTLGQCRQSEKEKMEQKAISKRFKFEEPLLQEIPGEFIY

[8] = target: Mitogen-activated protein kinase kinase kinase kinase 4 (Homo sapiens) (UniProt O95819); test: Inhibition of MAP4K4 (unknown origin) assessed as remaining activity at 1 uM by Kinome scan method relative to control
Mitogen-activated protein kinase kinase kinase kinase 4 (Homo sapiens), sequence (O95819 2-1239 limits assumed): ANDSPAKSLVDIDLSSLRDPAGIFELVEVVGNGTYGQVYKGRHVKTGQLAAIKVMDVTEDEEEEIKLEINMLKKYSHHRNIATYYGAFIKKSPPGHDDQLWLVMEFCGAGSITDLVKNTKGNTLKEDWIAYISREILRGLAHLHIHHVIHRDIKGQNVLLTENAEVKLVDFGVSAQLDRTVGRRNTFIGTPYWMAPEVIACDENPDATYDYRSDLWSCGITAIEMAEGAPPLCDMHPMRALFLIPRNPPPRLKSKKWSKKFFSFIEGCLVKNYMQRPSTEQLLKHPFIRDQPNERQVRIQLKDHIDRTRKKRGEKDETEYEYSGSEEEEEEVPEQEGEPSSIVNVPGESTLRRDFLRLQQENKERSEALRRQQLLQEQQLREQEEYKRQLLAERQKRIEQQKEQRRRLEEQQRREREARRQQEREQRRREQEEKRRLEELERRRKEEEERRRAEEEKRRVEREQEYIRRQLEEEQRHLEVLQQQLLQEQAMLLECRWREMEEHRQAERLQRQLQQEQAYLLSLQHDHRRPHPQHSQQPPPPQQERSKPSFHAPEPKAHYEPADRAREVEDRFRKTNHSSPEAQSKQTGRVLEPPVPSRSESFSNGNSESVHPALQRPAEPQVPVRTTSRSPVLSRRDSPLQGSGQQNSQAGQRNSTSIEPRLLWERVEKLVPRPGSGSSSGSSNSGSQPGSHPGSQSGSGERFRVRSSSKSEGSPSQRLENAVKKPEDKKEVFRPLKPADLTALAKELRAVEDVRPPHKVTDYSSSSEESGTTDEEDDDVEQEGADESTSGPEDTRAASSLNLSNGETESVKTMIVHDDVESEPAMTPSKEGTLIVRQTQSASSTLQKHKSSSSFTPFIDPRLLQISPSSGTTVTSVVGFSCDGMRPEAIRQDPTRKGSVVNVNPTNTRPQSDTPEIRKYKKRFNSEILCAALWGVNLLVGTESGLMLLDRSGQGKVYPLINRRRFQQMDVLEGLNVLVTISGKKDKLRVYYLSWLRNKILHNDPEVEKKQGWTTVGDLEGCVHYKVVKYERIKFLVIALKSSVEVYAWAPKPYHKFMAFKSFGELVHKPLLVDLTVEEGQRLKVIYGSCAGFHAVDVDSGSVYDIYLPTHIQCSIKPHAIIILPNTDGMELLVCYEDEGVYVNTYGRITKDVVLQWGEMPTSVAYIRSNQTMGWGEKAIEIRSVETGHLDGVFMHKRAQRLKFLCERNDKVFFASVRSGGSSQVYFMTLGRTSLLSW

[9] = target: Serine/threonine-protein kinase BRSK2 (Homo sapiens) (UniProt Q8IWQ3); test: Inhibition of BRSK2 (unknown origin) assessed as remaining activity at 1 uM by Kinome scan method relative to control
Serine/threonine-protein kinase BRSK2 (Homo sapiens), sequence (Q8IWQ3 whole entry): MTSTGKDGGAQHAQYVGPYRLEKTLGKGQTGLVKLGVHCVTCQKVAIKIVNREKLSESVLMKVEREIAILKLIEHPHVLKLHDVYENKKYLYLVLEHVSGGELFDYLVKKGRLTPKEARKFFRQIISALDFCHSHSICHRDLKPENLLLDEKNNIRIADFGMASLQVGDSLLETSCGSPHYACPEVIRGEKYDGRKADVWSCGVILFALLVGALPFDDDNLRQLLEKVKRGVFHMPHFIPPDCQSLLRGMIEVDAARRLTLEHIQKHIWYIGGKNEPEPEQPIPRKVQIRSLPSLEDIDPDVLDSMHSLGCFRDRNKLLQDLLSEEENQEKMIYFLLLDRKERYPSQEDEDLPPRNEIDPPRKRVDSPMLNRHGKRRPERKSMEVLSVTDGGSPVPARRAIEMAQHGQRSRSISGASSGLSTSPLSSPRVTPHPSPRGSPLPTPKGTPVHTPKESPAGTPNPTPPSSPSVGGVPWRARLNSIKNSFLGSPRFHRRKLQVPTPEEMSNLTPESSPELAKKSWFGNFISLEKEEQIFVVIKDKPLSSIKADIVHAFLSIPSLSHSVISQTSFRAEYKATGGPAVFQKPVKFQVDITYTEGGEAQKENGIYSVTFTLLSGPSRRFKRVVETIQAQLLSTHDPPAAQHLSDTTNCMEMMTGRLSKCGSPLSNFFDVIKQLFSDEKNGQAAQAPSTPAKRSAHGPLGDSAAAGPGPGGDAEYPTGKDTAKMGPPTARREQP

Phosphatidylinositol 4,5-bisphosphate 3-kinase catalytic subunit gamma isoform (Homo sapiens), sequence (P48736 whole entry, looked up, canonical isoform): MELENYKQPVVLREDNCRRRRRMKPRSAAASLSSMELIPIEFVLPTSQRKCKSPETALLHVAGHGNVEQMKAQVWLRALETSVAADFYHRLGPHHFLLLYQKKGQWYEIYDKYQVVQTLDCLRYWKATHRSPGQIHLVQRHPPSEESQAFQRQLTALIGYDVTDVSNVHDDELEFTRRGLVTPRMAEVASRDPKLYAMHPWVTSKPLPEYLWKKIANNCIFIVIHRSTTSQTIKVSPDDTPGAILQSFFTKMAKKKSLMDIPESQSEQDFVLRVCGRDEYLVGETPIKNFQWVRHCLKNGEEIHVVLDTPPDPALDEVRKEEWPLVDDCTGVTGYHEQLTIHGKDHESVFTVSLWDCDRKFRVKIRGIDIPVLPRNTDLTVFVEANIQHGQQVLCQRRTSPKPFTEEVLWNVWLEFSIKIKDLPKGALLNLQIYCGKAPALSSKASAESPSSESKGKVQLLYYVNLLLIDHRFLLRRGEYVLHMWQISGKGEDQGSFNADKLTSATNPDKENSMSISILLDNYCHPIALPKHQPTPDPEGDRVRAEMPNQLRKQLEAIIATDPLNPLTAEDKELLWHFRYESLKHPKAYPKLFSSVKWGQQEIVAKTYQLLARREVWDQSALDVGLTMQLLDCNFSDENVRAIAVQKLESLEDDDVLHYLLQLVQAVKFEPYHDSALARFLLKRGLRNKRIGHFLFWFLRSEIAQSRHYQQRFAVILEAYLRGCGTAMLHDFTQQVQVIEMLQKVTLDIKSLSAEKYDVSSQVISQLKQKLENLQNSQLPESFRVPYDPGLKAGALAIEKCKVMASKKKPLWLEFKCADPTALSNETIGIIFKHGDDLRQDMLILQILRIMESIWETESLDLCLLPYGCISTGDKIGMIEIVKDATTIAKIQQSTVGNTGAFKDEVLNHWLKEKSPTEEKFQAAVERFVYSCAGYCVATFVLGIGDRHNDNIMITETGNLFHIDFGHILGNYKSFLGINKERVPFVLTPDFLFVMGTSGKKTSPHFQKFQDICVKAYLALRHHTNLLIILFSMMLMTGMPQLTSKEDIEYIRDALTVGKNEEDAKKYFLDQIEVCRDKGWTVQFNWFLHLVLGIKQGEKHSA

Structure (SMILES)	Activity [1]	Activity [2]	Activity [3]	Activity [4]	Activity [5]	Activity [6]	Activity [7]	Activity [8]	Activity [9]
Nc1ccccc1Nc1ccc2c(c1)CCc1ccccc1C2=O	86%	96%	85%	91%	98%	93%	92%	94%	91%
O=C1c2ccc(Nc3ccc(F)cc3F)cc2CCc2ccc(OC[C@H](O)CO)cc21 [Skepinone-L]	100%	94%	96%	100%	97%	100%	100%	100%	94%
